Measured values taken from patent US12351571B2, “Substituted quinoxaline compounds as inhibitors of FGFR tyrosine kinases” (ARRAY BIOPHARMA INC., priority 2018, dated 2025).
pIC50: −log10 of the molar value.

Columns and labels:
[1] = target: FGFR1 (Homo sapiens (Human), UniProt P11362); experiment: LC/MS FGFR1 kobs assay (covalent modification); assay type: biochemical; settings: 500 nM FGFR1, 3 μM compound
Experimental: The LC/MS FGFR1 and FGFR3 kobs assays were conducted as follows. 500 nM FGFR1 (Array BioPharma construct p1702; SEQ ID NO: 1, amino acids 458-765) or FGFR3 (Array BioPharma construct p1700; SEQ ID NO: 5, amino acids 449-759) were incubated with 3 μM compound in 25 mM HEPES (4-(2-hydroxyethyl)-1-piperazineethanesulfonic acid), pH 7.4, 5 mM MgCl2, 150 mM NaCl, 0.5 mM TCEP (tris(2-carboxyethyl) phosphine), and 2% DMSO in a total volume of 20 μL. At each time point, the reaction was quenched with 20 μL of 0.4% formic acid. The extent of protein modification by each compound was determined by LC/MS on an Agilent Technologies 6520 Q-TOF LC/MS. Protein signals were then automatically deconvoluted using Agilent Masshunter software. Deconvoluted mass signals were exported to Tibco Spotfire data analysis program for further processing and normalization.
Data analysis included five steps. First, the signals for the “DMSO Controls” were analyzed to determine the percent of signal associated with unmodified FGFR1 or FGFR3 at each time point. Next, the percent of the signal associated with the covalent modification was determined. Third, the average nonmodified “DMSO Control” signal was used to normalize the modified protein signals at each time point. The percent of unmodified protein was fit to an exponential decay model where A0 is the Percent Unmodified at the start of the reaction, and kobs is the observed rate constant over the time period.

[2] = target: human wild type FGFR1 (Homo sapiens (Human), UniProt P11362); experiment: FGFR1 pERK Cell Assay; assay type: cell-based; settings: HEK-293 cells, 1 hour compound, 100 ng/ml human FGF-acidic; maximum concentration 5 μM
Experimental: HEK-293 cells transfected with doxycycline(dox)-inducible human wild type FGFR1 (SEQ ID NO: 1) were plated in a collagen or poly-D-lysine coated 96 well flat bottom plates at 4×10^5 cells/well in complete Dulbecco's Modified Eagle Medium (DMEM) containing 10% FBS and 1 μg/ml doxycycline and allowed to attach for 24 h at 37° C., 5% CO2. Cells were treated with compound using 1:3 serial dilutions with a maximum final concentration of 5 μM. Compound was incubated on cells for 1 hour at 37° C., 5% CO2. Cells were then stimulated with a final concentration of 100 ng/ml human FGF-acidic (R&D Systems Cat number 232-FA/CF) for 5 minutes at 37° C., 5% CO2. Medium was removed, and cells were lysed with lysis buffer containing phosphatase and protease inhibitors. Phospho ERK1/2 was measured using the Meso Scale Discovery sandwich assay (Meso Scale Discovery cat. no. K151DWD). The assay captures phospho ERK1/2 and detects with a sulfo-tagged total ERK1/2 antibody. The chemiluminescent signal was read on the Sector Imager Plate reader. 100 POC was determined using no test compound and 0 POC was determined using a control compound. The POC values were fit to a 4-parameter logistic curve as a function of the concentration of the compound, and the IC50 value is the point where the curve crosses 50 POC.

[3] = target: recombinant human FGFR2 cytoplasmic domain (Homo sapiens (Human), UniProt P21802); experiment: FGFR Enzyme Activity Assay (LanthaScreen TR-FRET), FGFR2; assay type: biochemical; settings: 15 μM ATP, 20 minute incubation; read-out: FGFR2 Enz FRET IC50
Experimental: FGFR2 kinase activity was measured by the Invitrogen LanthaScreen™ Assay technology which directly measures the amount of substrate phosphorylation by TR-FRET using a flourescently-labeled peptide and Europium-labeled antibody. Briefly, 200 pM His-tagged recombinant human FGFR2 cytoplasmic domain (amino acids 403-822) (Life Technologies Cat. No. PR5332A) was incubated with 100 nM Alexa Fluor® 647-Poly-GT Peptide Substrate (Life Technologies Cat. No. PV5836) and 15 μM ATP along with test compound in a buffer consisting of 250 mM HEPES, 25 mM MgCl2, 0.05% TritonX-100, pH 7.5, and 2% DMSO. Compounds were typically prepared in a threefold serial dilution in DMSO and added to the assay to give the appropriate final concentration. After a 20 minute incubation at 22° C., an equal volume of 2 nM LanthaScreen® Eu-PY20 Antibody (Life Technologies Cat. No. PV5691) and 10 mM EDTA were added to quench the kinase reaction and start the detection reaction. After an additional 60 minute incubation at 22° C., the reaction was measured using a PerkinElmer EnVision multimode plate reader via TR-FRET dual wavelength detection, and the percent of control (POC) calculated using a ratiometric emission factor. 100 POC was determined using no test compounds and 0 POC was determined using no enzyme. The POC values were fit to a 4-parameter logistic curve as a function of the concentration of the compound, and the IC50 value is the point where the curve crosses 50 POC.

[4] = target: dephosphorylated FGFR1 (Homo sapiens (Human), UniProt P11362); experiment: FGFR Enzyme Binding Assay (HTRF tracer displacement), FGFR1; settings: 5 nM dephosphorylated FGFR1, 60 minute incubation at 22° C.; read-out: FGFR1 Enz Binding IC50
Experimental: The potency of compounds inhibiting human isoforms of FGFR kinase was determined using Life Technologies' Homogeneous Time Resolved Fluorescence (HTRF)-based binding assay technology. An incubation was conducted with either 5 nM dephosphorylated FGFR1 (Array Biopharma, p1702; SEQ ID NO: 1, amino acids 458 to 765, dephosphorylated by co-expression with PTP1b (protein tyrosine phosphatase 1B)), 5 nM dephosphorylated FGFR2 (Life Technologies, Cat. No. PV4106 that had been dephosphorylated with Lambda protein phosphatase (New England Biolabs, cat #P0753)) or 5 nM phosphorylated FGFR3 (Array Biopharma, p1836; SEQ ID NO: 5, amino acids 449 to 759), 50 nM Kinase Tracer 236 (Life Technologies Cat. No. PR9078A), 2 nM Biotin-anti-6HIS (Life Technologies Cat. No. PV6090) and 2 nM Europium-Streptavidin (Life Technologies Cat. No. PV6025) along with test compound in a buffer consisting of 50 mM HEPES ((4-(2-hydroxyethyl)-1-piperazineethanesulfonic acid, pH 7.5), 5 mM MgCl2, 0.005% Triton X-100, 1 mM DTT, 1 mM NaVO4 and 2% DMSO in a final volume of 12 μL Compounds were typically prepared as a 3-fold or 4-fold serial dilution in DMSO and added to the assay to give the appropriate final concentration. After a 60 minute incubation at 22° C., the extent of tracer displacement was determined using a PerkinElmer EnVision multimode plate reader via HTRF dual wavelength detection, and the percent of control (POC) was calculated using a ratiometric emission factor. One hundred POC was determined using no test compound, and 0 POC was determined in the presence of 1 μM of an appropriate control inhibitor. A 4-parameter logistic curve was fit to the POC values as a function of the concentration of compound, and the IC50 value was the point where the best-fit curve crossed 50 POC.

Sequence of recombinant human FGFR2 cytoplasmic domain (P21802 402-821): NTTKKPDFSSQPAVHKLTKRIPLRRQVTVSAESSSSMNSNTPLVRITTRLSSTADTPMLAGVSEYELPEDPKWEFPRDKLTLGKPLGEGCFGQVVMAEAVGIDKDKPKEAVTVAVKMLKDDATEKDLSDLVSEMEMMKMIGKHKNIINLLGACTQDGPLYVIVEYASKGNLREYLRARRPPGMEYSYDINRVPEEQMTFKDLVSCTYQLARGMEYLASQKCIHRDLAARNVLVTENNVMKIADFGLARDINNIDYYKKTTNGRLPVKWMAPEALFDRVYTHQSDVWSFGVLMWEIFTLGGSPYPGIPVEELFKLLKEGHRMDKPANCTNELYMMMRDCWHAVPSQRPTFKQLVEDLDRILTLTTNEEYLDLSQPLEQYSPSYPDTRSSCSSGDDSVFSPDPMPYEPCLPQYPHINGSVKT
Sequence of dephosphorylated FGFR1 (P11362 458-765): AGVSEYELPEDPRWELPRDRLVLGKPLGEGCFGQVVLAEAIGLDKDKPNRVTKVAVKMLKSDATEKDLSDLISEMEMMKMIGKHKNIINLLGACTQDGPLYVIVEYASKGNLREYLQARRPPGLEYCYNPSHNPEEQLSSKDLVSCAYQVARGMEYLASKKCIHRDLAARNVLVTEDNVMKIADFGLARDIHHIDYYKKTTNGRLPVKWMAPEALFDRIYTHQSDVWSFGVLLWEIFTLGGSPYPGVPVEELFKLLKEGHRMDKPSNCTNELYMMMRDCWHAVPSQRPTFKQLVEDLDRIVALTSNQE
Sequence of FGFR1 (P11362 458-765): as above
Sequence of human wild type FGFR1 (P11362 22-822): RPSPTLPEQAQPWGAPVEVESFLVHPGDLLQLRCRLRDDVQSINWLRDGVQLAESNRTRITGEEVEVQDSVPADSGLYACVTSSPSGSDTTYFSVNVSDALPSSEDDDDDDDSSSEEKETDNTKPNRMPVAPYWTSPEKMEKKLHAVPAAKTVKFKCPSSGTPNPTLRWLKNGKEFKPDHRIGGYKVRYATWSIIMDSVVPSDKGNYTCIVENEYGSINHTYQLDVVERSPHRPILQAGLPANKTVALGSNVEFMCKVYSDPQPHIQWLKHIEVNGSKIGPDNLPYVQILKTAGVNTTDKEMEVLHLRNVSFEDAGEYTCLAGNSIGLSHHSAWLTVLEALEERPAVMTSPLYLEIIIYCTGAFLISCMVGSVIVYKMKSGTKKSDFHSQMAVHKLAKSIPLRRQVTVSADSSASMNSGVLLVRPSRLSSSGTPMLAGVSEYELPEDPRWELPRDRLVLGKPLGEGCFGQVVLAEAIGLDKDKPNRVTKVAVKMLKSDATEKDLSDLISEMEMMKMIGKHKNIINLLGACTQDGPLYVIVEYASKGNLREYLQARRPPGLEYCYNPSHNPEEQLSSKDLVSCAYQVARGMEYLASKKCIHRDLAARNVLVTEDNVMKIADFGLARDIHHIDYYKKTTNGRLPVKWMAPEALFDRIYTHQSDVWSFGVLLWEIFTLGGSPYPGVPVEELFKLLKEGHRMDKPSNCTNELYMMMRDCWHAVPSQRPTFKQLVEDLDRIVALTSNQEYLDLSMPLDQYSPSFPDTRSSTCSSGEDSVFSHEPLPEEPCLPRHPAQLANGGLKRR

C=CC(=O)N1CC(F)(C(=O)N2CCC(n3cc(-c4cnc5ccc(Nc6cc(OC)cc(OC)c6)cc5n4)cn3)CC2)C1 [Example 4, 1-(3-(4-(4-(7-((3,5-dimethoxyphenyl)amino)-quinoxalin-2-yl)-1H-pyrazol-1-yl)piperidine-1-carbonyl)-3-fluoro-azetidin-1-yl)prop-2-en-1-one]
FGFR1 Enz kobs [1]: 0.00632 min⁻¹
pIC50 [2]: 6.77
pIC50 [3]: 7.40
pIC50 [4]: 7.48

C=CC(=O)N1CC(CN2CCC(n3cc(-c4cnc5ccc(Nc6cc(OC)cc(OC)c6)cc5n4)cn3)CC2)C1 [Example 30, 1-(3-((4-(4-(7-((3,5-dimethoxyphenyl)amino)quinoxalin-2-yl)-1H-pyrazol-1-yl)piperidin-1-yl)methyl)azetidin-1-yl)prop-2-en-1-one]
FGFR1 Enz kobs [1]: 0.00172 min⁻¹
pIC50 [2]: 6.65
pIC50 [3]: 6.80
pIC50 [4]: 7.47

COc1cc(Nc2ccc3ncc(-c4ccc(N5CCN(C(=O)C6CN(C(=O)/C=C/CN(C)C)C6)CC5)nc4)nc3c2)cc(OC)c1 [Example 6, (E)-1-(3-(4-(5-(7-((3,5-dimethoxyphenyl)amino)-quinoxalin-2-yl)pyridin-2-yl)piperazine-1-carbonyl)azetidin-1-yl)-4-(dimethylamino)but-2-en-1-one]
FGFR1 Enz kobs [1]: 0.00259 min⁻¹
pIC50 [2]: ≤ 5.30
pIC50 [3]: 6.91
pIC50 [4]: 6.88

COc1cc(Nc2ccc3ncc(-c4cnn([C@@H]5CCN(C(=O)C6(F)CN(C(=O)/C=C/CN(C)C)C6)C5)c4)nc3c2)cc(OC)c1 [Example 19, (R,E)-1-(3-(3-(4-(7-((3,5-dimethoxyphenyl)amino)-quinoxalin-2-yl)-1H-pyrazol-1-yl)pyrrolidine-1-carbonyl)-3-fluoro-azetidin-1-yl)-4-(dimethyl-amino)but-2-en-1-one]
FGFR1 Enz kobs [1]: 0.00339 min⁻¹
pIC50 [2]: 5.89
pIC50 [3]: 6.78
pIC50 [4]: 7.26

COc1cc(Nc2ccc3ncc(-c4cnn(C5CCN(C(=O)C6CN(C(=O)/C=C/CN(C)C)C6)CC5)c4)nc3c2)cc(OC)c1 [Example 9, (E)-1-(3-(4-(4-(7-((3,5-dimethoxyphenyl)amino)-quinoxalin-2-yl)-1H-pyrazol-1-yl)piperidine-1-carbonyl)azetidin-1-yl)-4-(dimethylamino)but-2-en-1-one]
FGFR1 Enz kobs [1]: 0.00278 min⁻¹
pIC50 [2]: 5.65
pIC50 [3]: 8.00
pIC50 [4]: 7.66

COc1cc(Nc2ccc3ncc(-c4c(C)nn(C5CCN(C(=O)C6(F)CN(C(=O)/C=C/CN(C)C)C6)CC5)c4C)nc3c2)cc(OC)c1 [Example 23, (E)-1-(3-(4-(4-(7-((3,5-dimethoxyphenyl)amino)-quinoxalin-2-yl)-3,5-dimethyl-1H-pyrazol-1-yl)piperidine-1-carbonyl)-3-fluoroazetidin-1-yl)-4-(dimethylamino)but-2-en-1-one]
FGFR1 Enz kobs [1]: 0.00386 min⁻¹
pIC50 [2]: 5.71
pIC50 [3]: 5.46
pIC50 [4]: 6.07

COc1cc(Nc2ccc3ncc(-c4cnn([C@@H]5CCN(C(=O)C6CN(C(=O)/C=C/CN(C)C)C6)C5)c4)nc3c2)cc(OC)c1 [Example 20, (R,E)-1-(3-(3-(4-(7-((3,5-dimethoxyphenyl)amino)-quinoxalin-2-yl)-1H-pyrazol-1-yl)pyrrolidine-1-carbonyl)azetidin-1-yl)-4-(dimethylamino)but-2-en-1-one]
FGFR1 Enz kobs [1]: 0.00141 min⁻¹
pIC50 [2]: ≤ 5.30
pIC50 [3]: 6.97
pIC50 [4]: 7.28
